Values joined by “and” are separate entries in the source; they are usually repeats but may differ in a detail not shown here. Equal entries are not always repeated. Active and inactive are the calls of the source. No cut-off for these calls is given here.
Tests used:
Rattus norvegicus [1] = experiment: Time during which activity returned to baseline level in rat by intraperitoneal administration; assay type: functional
Rattus norvegicus [2] = experiment: Effective dose of compound required to produce maximal locomotor activity in cocaine-trained rat by intraperitoneal administration; assay type: functional; details: ip
[3] = biological target: T1, Norepinephrine transporter (Rattus norvegicus, UniProt Q9WTR4); experiment: Affinity for norepinephrine transporter determined by [3H]nisoxetine displacement.
Rattus norvegicus [4] = experiment: Time taken to produce maximal locomotor activity at 30 min period in rat by intraperitoneal administration; assay type: functional
Rattus norvegicus [5] = experiment: Effective dose of compound required to produce maximal locomotor activity in rat by intraperitoneal administration; assay type: functional; details: ip
Rattus norvegicus [6] = experiment: Maximal locomotor activity of compound compared as a percent of cocaine's effect in rat by intraperitoneal administration; assay type: functional
[7] = biological target: Kappa-type opioid receptor (Cavia porcellus) (UniProt P41144); experiment: Inhibition of [35S]GTP-gamma-S, binding in guines pig caudate stimulated by U69, 593 of Opioid receptor kappa 1; assay type: functional
[8] = biological target: Mu-type opioid receptor (Cavia porcellus) (UniProt P97266); experiment: Inhibition of [35S]GTP-gamma-S, binding in guines pig caudate stimulated by DAMGO for Opioid receptor mu 1; assay type: functional
[9] = biological target: T1, Norepinephrine transporter; experiment: Inhibition of [3H]nisoxetine binding at norepinephrine transporter
[10] = biological target: Sodium-dependent serotonin transporter (Rattus norvegicus, UniProt P31652); experiment: Inhibition of [3H]paroxetine binding at serotonin transporter was determined
[11] = biological target: Sodium-dependent dopamine transporter (Rattus norvegicus, UniProt P23977); experiment: Inhibition of [3H]WIN-35428 binding at dopamine transporter was determined
Mus musculus [12] = species on record: Mus musculus; experiment: Antagonistic activity of nicotine-induced hypothermia in mice was determined; assay type: functional
Mus musculus [13] = species on record: Mus musculus; experiment: Antagonistic activity of nicotine-induced analgesia in mice was determined; assay type: functional
Rattus norvegicus [14] = experiment: Effective dose of compound required to produce maximal locomotor activity in cocaine-trained rat by oral administration; assay type: functional
Rattus norvegicus [15] = experiment: Effective dose of compound required to produce maximal locomotor activity in rat by oral administration; assay type: functional
Rattus norvegicus [16] = experiment: Time taken to produce maximal locomotor activity at 30 min period in rat by oral administration; assay type: functional
Rattus norvegicus [17] = experiment: Maximal locomotor activity of compound compared as a percent of cocaine's effect in rat by oral administration; assay type: functional
Rattus norvegicus [18] = experiment: Time during which activity returned to baseline level in rat by oral administration; assay type: functional
[19] = biological target: D(1A) dopamine receptor (Rattus norvegicus) (UniProt P18901); details: Striatum
[20] = biological target: D(1A) dopamine receptor (Rattus norvegicus) (UniProt P18901); details: Striatum; remark: listed apart in the source
Rattus norvegicus [21] = species on record: Rattus norvegicus; experiment: Half life of recovery for dopamine transporter in nucleus accumbens was determined; assay type: functional
Rattus norvegicus [22] = species on record: Rattus norvegicus; experiment: Degradation rate constant for dopamine transporter in nucleus accumbens was determined; assay type: functional
Rattus norvegicus [23] = species on record: Rattus norvegicus; experiment: Degradation rate constant for dopamine transporter in striatum was determined; assay type: functional
Rattus norvegicus [24] = species on record: Rattus norvegicus; experiment: Half life of recovery for dopamine transporter in striatum was determined; assay type: functional
Mu-type opioid receptor = Mu-type opioid receptor (Cavia porcellus, UniProt P97266); experiment: Inhibition of binding of [3H]DAMGO to Opioid receptor mu 1 in guinea pig membranes; assay type: cell membranes
Mu-type opioid receptor, sequence (P97266 whole entry): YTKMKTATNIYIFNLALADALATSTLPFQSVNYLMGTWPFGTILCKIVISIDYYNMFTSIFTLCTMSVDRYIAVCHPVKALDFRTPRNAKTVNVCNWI

Sodium-dependent dopamine transporter, sequence (P23977 whole entry): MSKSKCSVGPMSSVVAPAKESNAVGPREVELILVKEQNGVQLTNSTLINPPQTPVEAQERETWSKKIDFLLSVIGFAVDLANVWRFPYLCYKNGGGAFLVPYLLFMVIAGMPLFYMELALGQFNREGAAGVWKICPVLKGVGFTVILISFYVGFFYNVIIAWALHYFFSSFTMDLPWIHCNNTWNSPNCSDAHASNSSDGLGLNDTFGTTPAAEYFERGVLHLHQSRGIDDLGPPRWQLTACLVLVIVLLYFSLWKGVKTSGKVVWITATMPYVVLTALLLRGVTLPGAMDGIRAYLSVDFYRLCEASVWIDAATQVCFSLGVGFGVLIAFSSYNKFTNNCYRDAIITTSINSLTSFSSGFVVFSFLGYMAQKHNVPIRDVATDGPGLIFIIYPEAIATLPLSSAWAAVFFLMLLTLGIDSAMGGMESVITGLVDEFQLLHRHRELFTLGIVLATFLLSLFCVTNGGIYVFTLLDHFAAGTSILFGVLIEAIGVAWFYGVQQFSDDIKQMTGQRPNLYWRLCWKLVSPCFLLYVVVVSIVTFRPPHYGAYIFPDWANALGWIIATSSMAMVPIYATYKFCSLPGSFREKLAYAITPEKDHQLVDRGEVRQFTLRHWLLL
Kappa-type opioid receptor (Cavia porcellus), sequence (P41144 whole entry): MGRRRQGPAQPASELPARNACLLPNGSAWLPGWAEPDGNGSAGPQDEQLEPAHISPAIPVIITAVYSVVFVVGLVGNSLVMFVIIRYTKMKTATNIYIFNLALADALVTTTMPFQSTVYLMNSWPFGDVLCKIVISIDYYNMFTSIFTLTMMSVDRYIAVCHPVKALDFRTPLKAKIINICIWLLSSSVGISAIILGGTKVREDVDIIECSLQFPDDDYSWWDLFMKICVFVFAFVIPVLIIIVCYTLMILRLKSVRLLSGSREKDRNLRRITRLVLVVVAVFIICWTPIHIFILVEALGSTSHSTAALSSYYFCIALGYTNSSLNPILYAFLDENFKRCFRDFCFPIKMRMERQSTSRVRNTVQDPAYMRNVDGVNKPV
D(1A) dopamine receptor (Rattus norvegicus), sequence (P18901 whole entry): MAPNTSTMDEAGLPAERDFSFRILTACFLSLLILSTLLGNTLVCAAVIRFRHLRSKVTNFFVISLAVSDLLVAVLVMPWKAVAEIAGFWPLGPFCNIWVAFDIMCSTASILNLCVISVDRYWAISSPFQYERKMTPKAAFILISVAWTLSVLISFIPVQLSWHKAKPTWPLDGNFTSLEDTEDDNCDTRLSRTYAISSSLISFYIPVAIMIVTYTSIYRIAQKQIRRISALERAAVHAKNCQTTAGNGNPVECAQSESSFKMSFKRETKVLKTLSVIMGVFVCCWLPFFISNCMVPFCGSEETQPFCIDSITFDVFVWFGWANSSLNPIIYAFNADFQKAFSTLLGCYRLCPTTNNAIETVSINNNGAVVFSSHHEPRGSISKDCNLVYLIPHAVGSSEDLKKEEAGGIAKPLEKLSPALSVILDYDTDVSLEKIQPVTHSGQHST
T1 sequence (Q9WTR4 whole entry): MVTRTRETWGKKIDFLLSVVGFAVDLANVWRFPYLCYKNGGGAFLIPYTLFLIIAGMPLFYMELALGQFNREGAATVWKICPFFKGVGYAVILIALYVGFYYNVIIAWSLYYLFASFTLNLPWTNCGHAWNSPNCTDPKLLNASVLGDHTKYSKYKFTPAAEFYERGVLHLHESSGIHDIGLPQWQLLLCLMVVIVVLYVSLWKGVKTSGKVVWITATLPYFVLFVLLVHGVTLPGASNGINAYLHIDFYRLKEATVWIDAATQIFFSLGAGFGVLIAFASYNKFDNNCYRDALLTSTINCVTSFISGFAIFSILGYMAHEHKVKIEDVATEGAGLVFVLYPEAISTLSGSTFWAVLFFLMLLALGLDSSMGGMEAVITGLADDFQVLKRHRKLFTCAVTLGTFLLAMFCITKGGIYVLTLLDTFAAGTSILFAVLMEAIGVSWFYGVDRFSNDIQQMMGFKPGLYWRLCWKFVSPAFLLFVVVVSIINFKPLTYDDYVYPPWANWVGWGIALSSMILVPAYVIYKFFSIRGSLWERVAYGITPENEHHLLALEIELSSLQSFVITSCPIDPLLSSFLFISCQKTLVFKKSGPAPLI
Mu-type opioid receptor (Cavia porcellus), sequence (P97266 whole entry): as the sequence (P97266 whole entry) above
Sodium-dependent serotonin transporter, sequence (P31652 whole entry): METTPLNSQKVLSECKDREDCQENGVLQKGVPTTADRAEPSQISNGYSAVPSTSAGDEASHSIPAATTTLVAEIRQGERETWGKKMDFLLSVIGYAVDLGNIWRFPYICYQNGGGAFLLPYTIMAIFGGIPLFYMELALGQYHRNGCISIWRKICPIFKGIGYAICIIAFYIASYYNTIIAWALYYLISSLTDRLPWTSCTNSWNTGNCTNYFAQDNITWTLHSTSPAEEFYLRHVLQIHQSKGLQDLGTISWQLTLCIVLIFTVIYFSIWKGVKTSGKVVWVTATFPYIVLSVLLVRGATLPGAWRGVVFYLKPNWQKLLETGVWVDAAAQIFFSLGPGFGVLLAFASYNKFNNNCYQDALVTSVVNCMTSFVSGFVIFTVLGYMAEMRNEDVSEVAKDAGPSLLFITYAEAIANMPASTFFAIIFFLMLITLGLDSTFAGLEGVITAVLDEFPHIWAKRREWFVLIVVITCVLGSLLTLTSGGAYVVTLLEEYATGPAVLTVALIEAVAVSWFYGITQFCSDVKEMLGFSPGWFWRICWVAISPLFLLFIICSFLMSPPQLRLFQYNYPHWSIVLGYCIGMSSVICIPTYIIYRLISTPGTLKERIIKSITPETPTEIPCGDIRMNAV

`COC(=O)[C@@H]1C2CC[C@H](C[C@@H]1c1ccccc1)N2C.Cl` was tested, and the Time (Rattus norvegicus [1]) was 2 h, the ED50 (Rattus norvegicus [2]) was 0.35 mg/kg and the Ki [3] was 554 nM. The Peak time (Rattus norvegicus [4]) was 10 min, the ED50 (Rattus norvegicus [5]) was 2.1 mg/kg and the “Maximal locomotor activity (% of cocaine)” value (Rattus norvegicus [6]) was 146%.
Work on `CC1CN(C)C2CCCC1(c1cccc(O)c1)C2` (centres undefined) yielded a Ke [7] of 76.4 nM and a Ke [8] of 25.2 nM.
In the case of `CCc1ccc([C@H]2C[C@H]3CCC(N3)C2C(=O)OC)cc1` (some centres undefined), the IC50 [9] is reported as 122 nM, the IC50 [10] is reported as 8.1 nM and the Ki [10] is reported as 0.74 nM. It also gave a Ki [3] of 74 nM and an IC50 [11] of 50 nM.
`CN1[C@H]2CC[C@@H]1[C@@H](C(=O)N1CCCC1)[C@@H](c1ccc(I)cc1)C2` gave a Ki [10] of 157 nM and a Ki [3] of 596 nM.
`COC(=O)C1C2CC[C@H](C[C@@H]1c1ccc(I)cc1)N2C` (some centres undefined) gave a Ki [10] of 0.38 nM and a Ki [3] of 21.6 nM.
Compound `CC(NC(C)(C)C)C(=O)c1cccc(Cl)c1` (centres undefined) [BUPROPION] has an AD50 (Mus musculus [12]) of 16 mM/kg and an AD50 (Mus musculus [13]) of 9 mM/kg.
`COC(=O)C1C2CC[C@H](C[C@@H]1c1ccc(C)c(F)c1)N2` (some centres undefined) showed an IC50 [9] of 0.86 nM, an IC50 [10] of 97.4 nM and a Ki [10] of 23.8 nM. It also gave a Ki [3] of 0.43 nM and an IC50 [11] of 9 nM.
For `CC1C2CCCC1(c1cccc(O)c1)CCN2C` (centres undefined), the Ke [7] was 105 nM and the Ke [8] was 21.2 nM.
`Cc1ccc(-c2cc(C3C4CC[C@H](C[C@@H]3c3ccc(Cl)cc3)N4C)on2)cc1` (some centres undefined) gave an IC50 [9] of 1710 nM, an IC50 [10] of 5740 nM and a Ki [10] of 522 nM. It also gave an ED50 (Rattus norvegicus [14]) of 3.54 mg/kg, a Time (Rattus norvegicus [1]) greater than 4 h and an ED50 (Rattus norvegicus [2]) of 5.6 mg/kg. The Ki [3] was 1030 nM, the ED50 (Rattus norvegicus [15]) was 14.4 mg/kg and the Peak time (Rattus norvegicus [16]) was 60 min. The Cocaine (Rattus norvegicus [17]) was 77%, the IC50 [11] was 4.09 nM and the Peak time (Rattus norvegicus [4]) was 70 min. For the same compound, the Time (Rattus norvegicus [18]) was greater than 4 h, the ED50 (Rattus norvegicus [5]) was 4.8 mg/kg and the “Maximal locomotor activity (% of cocaine)” value (Rattus norvegicus [6]) was 71%.
With `CN1C2CC[C@@H]1C[C@H](c1ccc(Cl)cc1)C2C(=O)OCCc1ccc(N)cc1` (some centres undefined) the IC50 [11] was 2.16 nM.
With `CN1CCc2cc(Cl)c(O)cc2[C@@H](c2ccccc2)C1` the NC [19] was “inactive” and the NC [20] was “inactive”.
`Oc1cc2c(cc1O)C(c1ccccc1)CNCC2` (centres undefined) was tested, and the NC [19] was “inactive” and the NC [20] was “inactive”.
`CC(C)[C@@H](CN1CC[C@@](C)(c2cccc(O)c2)[C@@H](C)C1)NC(=O)CCc1ccc(O)cc1` showed a Ke [7] of 4.7 nM and a Ke [8] of 7.25 nM.
In the case of `COC(=O)[C@H]1[C@@H](OC(=O)c2ccccc2)C[C@@H]2CC[C@H]1N2C` [COCAINE], the Time (Rattus norvegicus [1]) is reported as less than 2 h, the ED50 (Rattus norvegicus [2]) is reported as 2.5 mg/kg and the Change (Rattus norvegicus [21]) is reported as 43%. For the same compound, the Peak time (Rattus norvegicus [4]) was 0 min, the Change (Rattus norvegicus [22]) was -30% and -27% and the ED50 (Rattus norvegicus [5]) was 21 mg/kg. The Change (Rattus norvegicus [23]) was -17% and -16%, the “Maximal locomotor activity (% of cocaine)” value (Rattus norvegicus [6]) was 100% and the Change (Rattus norvegicus [24]) was 22%.
Compound `C[C@H]1CN(C/C=C/c2ccccc2)CC[C@@]1(C)c1cccc(O)c1` has a Ki (Mu-type opioid receptor) of 0.74 nM, a Ke [7] of 1.04 nM and a Ke [8] of 0.039 nM.
Compound `COC(=O)C1C2CC[C@H](C[C@H]1c1ccc(Cl)c(Cl)c1)N2C` (some centres undefined) has an IC50 [9] of 18 nM, an IC50 [10] of 3.13 nM and a Ki [10] of 0.28 nM. The Ki [3] was 10.8 nM.
`CN(C)C(=O)C1C2CC[C@H](C[C@@H]1c1ccc(Cl)cc1)N2C` (some centres undefined) gave an IC50 [9] of 940 nM, an IC50 [10] of 1080 nM and a Ki [10] of 98 nM. The Ki [3] was 566 nM and the IC50 [11] was 1.38 nM.
In the case of `CN1C2CC[C@@H]1C[C@H](c1ccc(Cl)cc1)C2C(=O)N1CCCC1` (some centres undefined), the IC50 [9] is reported as 3940 nM, the IC50 [10] is reported as 12400 nM and the Ki [10] is reported as 1130 nM. It also gave a Ki [3] of 2370 nM and an IC50 [11] of 1.38 nM.

— ChEMBL document CHEMBL1136786, “2002 Medicinal Chemistry Division Award address: monoamine transporters and opioid receptors. Targets for addiction therapy” (J Med Chem, 2003)
